Type: physicochemical
Source text: Referring to FIGS. 1A and B, differential scanning calorimetry thermographs compare the melting of (1A) lysine and (1B) a lysine-based drug delivery composition, according to this example. […] These observations, further confirmed with Raman spectroscopy and x-ray powder diffraction, are consistent with the nanosizing effect on melting point and thermal stability of crystals due to the increased surface to volume ratio.

NCCCC[C@H](N)C(=O)O [lysine]
onset decomposition temperature (thermal stability): about 257 °C

From patent US9468654B1, “Drug delivery compositions and methods” (WILKES UNIVERSITY, priority 2014, dated 2016)
